Like-named read-outs stand apart in the source and are kept apart here.
Key:
BRM = biological target: T1, BRM (Homo sapiens, UniProt P51531); assay: ATPase catalytic activity of BRM, ADP-Glo in vitro biochemical assay; conditions: ATPase catalytic activity, 30 nM BRM, 400 μM ATP
T1 construct: made in house; host or cells: High Five insect cells

BRG-1 = biological target: T2, BRG-1 (Homo sapiens, UniProt P51532); assay: ATPase catalytic activity of BRG-1, ADP-Glo in vitro biochemical assay; conditions: ATPase catalytic activity, 30 nM BRG-1, 400 μM ATP
T2 construct: made in house; host or cells: High Five insect cells
T2 sequence (P51532 whole entry): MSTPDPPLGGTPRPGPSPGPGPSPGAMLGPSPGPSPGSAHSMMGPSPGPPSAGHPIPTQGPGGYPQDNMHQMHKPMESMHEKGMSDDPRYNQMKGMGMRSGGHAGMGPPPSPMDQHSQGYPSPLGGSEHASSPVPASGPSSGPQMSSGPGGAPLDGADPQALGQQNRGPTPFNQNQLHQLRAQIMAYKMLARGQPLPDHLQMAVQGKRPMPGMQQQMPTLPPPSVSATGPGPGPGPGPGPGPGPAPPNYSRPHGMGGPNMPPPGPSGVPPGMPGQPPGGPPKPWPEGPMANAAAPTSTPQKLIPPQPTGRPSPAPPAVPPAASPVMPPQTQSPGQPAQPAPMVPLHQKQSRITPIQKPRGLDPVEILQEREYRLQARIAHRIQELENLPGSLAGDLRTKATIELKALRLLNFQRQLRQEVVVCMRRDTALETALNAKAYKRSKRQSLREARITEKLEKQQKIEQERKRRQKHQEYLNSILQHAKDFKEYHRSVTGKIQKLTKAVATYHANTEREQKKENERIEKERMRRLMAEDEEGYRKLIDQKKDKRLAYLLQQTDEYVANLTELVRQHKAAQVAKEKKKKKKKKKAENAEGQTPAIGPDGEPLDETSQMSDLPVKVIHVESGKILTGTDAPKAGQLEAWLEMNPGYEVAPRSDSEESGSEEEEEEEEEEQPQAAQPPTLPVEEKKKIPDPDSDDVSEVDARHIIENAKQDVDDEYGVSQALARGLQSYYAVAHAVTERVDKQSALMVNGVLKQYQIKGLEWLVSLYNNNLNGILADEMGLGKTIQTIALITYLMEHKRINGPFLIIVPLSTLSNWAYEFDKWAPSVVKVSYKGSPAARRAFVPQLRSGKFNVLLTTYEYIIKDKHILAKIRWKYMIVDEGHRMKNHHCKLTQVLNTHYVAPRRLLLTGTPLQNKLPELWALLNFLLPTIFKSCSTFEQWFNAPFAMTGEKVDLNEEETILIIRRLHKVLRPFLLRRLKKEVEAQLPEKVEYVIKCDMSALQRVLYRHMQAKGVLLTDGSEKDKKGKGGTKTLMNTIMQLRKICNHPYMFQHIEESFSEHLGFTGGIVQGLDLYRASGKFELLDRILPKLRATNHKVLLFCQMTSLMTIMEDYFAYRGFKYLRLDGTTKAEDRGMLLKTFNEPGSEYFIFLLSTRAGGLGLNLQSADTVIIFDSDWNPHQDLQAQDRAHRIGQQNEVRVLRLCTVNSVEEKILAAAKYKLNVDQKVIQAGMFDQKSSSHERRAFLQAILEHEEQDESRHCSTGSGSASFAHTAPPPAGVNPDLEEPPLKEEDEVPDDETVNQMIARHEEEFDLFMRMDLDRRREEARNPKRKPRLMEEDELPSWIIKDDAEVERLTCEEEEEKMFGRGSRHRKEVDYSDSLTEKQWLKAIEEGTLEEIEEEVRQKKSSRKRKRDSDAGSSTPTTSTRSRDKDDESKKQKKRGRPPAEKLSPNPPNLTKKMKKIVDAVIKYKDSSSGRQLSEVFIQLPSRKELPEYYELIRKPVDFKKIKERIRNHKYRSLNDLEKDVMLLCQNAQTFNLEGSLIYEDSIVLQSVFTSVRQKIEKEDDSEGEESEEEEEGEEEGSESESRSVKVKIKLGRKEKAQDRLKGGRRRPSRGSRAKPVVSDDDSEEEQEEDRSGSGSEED

T1 sequence (P51531 whole entry): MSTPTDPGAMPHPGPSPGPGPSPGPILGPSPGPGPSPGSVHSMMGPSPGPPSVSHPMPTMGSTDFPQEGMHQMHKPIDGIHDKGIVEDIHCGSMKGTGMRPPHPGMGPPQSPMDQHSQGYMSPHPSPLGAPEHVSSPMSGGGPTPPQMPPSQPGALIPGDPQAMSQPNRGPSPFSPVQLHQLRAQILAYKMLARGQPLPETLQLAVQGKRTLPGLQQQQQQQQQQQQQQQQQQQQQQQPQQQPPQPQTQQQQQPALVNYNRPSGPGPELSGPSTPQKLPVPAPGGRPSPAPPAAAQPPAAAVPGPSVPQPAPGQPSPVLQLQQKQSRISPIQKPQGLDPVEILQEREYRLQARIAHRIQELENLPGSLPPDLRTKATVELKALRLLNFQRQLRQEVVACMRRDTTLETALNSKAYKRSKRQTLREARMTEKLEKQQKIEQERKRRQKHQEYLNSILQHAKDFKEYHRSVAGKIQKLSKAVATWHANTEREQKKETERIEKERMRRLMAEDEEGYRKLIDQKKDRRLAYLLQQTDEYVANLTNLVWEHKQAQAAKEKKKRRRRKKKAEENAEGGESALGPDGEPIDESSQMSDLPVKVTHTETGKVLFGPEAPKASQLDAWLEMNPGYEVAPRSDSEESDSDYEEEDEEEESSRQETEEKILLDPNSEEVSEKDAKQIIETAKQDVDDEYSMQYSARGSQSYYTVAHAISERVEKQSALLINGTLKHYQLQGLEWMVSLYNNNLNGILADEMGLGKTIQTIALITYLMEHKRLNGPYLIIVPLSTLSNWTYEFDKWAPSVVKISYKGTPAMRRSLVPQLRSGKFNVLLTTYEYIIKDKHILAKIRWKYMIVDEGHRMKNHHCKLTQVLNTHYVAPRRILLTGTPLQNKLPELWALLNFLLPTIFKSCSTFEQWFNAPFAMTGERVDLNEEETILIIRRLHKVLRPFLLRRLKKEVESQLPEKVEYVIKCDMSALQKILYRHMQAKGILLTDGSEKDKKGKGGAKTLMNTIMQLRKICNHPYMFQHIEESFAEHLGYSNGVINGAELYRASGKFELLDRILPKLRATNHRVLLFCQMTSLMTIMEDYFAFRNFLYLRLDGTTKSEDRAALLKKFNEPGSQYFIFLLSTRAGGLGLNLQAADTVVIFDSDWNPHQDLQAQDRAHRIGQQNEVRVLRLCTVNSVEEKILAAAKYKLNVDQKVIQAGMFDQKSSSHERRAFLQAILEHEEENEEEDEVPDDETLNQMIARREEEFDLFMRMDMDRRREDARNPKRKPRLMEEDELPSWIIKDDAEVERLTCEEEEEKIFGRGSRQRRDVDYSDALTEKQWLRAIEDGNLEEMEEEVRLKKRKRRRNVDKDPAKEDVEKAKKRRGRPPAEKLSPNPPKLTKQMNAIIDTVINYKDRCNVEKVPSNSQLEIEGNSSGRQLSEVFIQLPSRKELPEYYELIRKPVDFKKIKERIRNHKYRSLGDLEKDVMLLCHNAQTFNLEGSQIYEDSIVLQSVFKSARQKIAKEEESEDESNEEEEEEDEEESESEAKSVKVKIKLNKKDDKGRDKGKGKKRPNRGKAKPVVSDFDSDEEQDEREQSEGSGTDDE

CC(C)N1CCc2ccc(-c3csc(NC(=O)CNC(=O)c4ccn(S(C)(=O)=O)c4)n3)cc21 [Compound 469]
IC50 (BRM; read-out: BRM IP50): > 0.1 µM | IC50 (BRG-1; read-out: BRG1 IP50): > 0.1 µM

CS(=O)(=O)n1ccc(C(=O)NCC(=O)Nc2nc(-c3cccc(C4(N)CCOCC4)c3)cs2)c1 [Compound 138, N-(2-((4-(3-(4-aminotetrahydro-2H-pyran-4-yl)phenyl)thiazol-2-yl)amino)-2-oxoethyl)-1-(methylsulfonyl)-1H-pyrrole-3-carboxamide]
IC50 (BRM; read-out: BRM IP50 (μM)*): > 1 µM | IC50 (BRG-1; read-out: BRG1 IP50 (μM)*): > 1 µM

COC[C@H](NC(=O)c1ccn(S(C)(=O)=O)c1)C(=O)Nc1nc(-c2cccc([C@@]34CCOC[C@@H]3C4)n2)cs1 [Compound 756]
IC50 (BRM; read-out: BRM IP50): > 0.01 µM | IC50 (BRG-1; read-out: BRG1 IP50): > 0.1 µM

CS(=O)(=O)n1ccc(C(=O)NCC(=O)Nc2nc(-c3cccc(C4CCC4)c3)cs2)c1 [Compound 298]
IC50 (BRM; read-out: BRM IP50 (μM)*): > 0.01 µM | IC50 (BRG-1; read-out: BRG1 IP50 (μM)*): > 0.01 µM

Cn1ccc(C2CCN(c3cccc(-c4csc(NC(=O)CNC(=O)c5ccn(C(C)(C)C)c5)n4)n3)CC2)n1 [Compound 696]
IC50 (BRM; read-out: BRM IP50): > 0.1 µM | IC50 (BRG-1; read-out: BRG1 IP50): > 0.1 µM

CS(=O)(=O)n1ccc(C(=O)NCC(=O)Nc2nc(-c3cccc(N4CC(O)(C(F)(F)F)C4)c3)cs2)c1 [Compound 176]
IC50 (BRM; read-out: BRM IP50 (μM)*): > 0.1 µM | IC50 (BRG-1; read-out: BRG1 IP50 (μM)*): > 0.1 µM

C[C@@H]1CN(c2cc(F)cc(-c3csc(NC(=O)CNC(=O)c4ccn(S(C)(=O)=O)c4)n3)c2)C[C@H](C)O1 [Compound 295]
IC50 (BRM; read-out: BRM IP50 (μM)*): < 0.01 µM | IC50 (BRG-1; read-out: BRG1 IP50 (μM)*): < 0.01 µM

CC(C)(C)n1ccc(C(=O)NCC(=O)Nc2nc(-c3cccc(N4CCC(F)C4)n3)cs2)c1 (stereo not drawn) [Compound 675]
IC50 (BRM; read-out: BRM IP50): > 0.01 µM | IC50 (BRG-1; read-out: BRG1 IP50): > 0.01 µM

Cn1ncc2ccc(-c3csc(NC(=O)CNC(=O)c4ccn(C(C)(C)C)c4)n3)cc2c1=O [Compound 492]
IC50 (BRM; read-out: BRM IP50): > 0.01 µM | IC50 (BRG-1; read-out: BRG1 IP50): > 0.01 µM

C[C@@H]1CN(c2cccc(-c3nc(NC(=O)CNC(=O)c4ccn(C(C)(C)C)c4)sc3F)n2)C[C@H](C)O1 [Compound 520, 1-(tert-butyl)-N-(2-((4-(6-(cis-2,6-dimethylmorpholino)pyridin-2-yl)-5-fluorothiazol-2-yl)amino)-2-oxoethyl)-1H-pyrrole-3-carboxamide]
IC50 (BRM; read-out: BRM IP50): > 0.01 µM | IC50 (BRG-1; read-out: BRG1 IP50): > 0.1 µM

CS(=O)(=O)n1ccc(C(=O)NCC(=O)Nc2nc(-c3cccc(N4CC[C@H](O)[C@@H](F)C4)c3)cs2)c1 [Compound 190]
IC50 (BRM; read-out: BRM IP50 (μM)*): < 0.01 µM | IC50 (BRG-1; read-out: BRG1 IP50 (μM)*): < 0.01 µM

CS(=O)(=O)n1ccc(C(=O)NCC(=O)Nc2nc(-c3cccc([C@@H]4CCCCO4)c3)cs2)c1 (racemic) [Compound 392]
IC50 (BRM; read-out: BRM IP50): > 0.01 µM | IC50 (BRG-1; read-out: BRG1 IP50): > 0.01 µM

C[C@@H]1CN(c2cccc(-c3csc(NC(=O)CNC(=O)c4ccn(C5(C)CC5)c4)n3)n2)C[C@H](C)O1 [Compound 333]
IC50 (BRM; read-out: BRM IP50 (μM)*): < 0.01 µM | IC50 (BRG-1; read-out: BRG1 IP50 (μM)*): < 0.01 µM

C[C@H](NC(=O)c1ccn(S(C)(=O)=O)c1)C(=O)Nc1nc(-c2cccc(-c3ccncc3)c2)cs1 [Compound 68, N-[(1S)-1-methyl-2-oxo-2-[[4-[3-(4-pyridyl)phenyl]thiazol-2-yl]amino]ethyl]-1-methylsulfonyl-pyrrole-3-carboxamide]
IC50 (BRM; read-out: BRM IP50 (μM)*): < 0.01 µM | IC50 (BRG-1; read-out: BRG1 IP50 (μM)*): < 0.01 µM

Cc1cc(-c2cccc(-c3csc(NC(=O)CNC(=O)c4ccn(C(C)(C)C)c4)n3)c2)no1 [Compound 425]
IC50 (BRM; read-out: BRM IP50): > 0.01 µM | IC50 (BRG-1; read-out: BRG1 IP50): > 0.01 µM

Cc1cc(-c2cccc(-c3csc(NC(=O)CNC(=O)c4ccn(C(C)(C)C)c4)n3)c2)ncn1 [Compound 22, 1-(tert-butyl)-N-(2-((4-(3-(6-methylpyrimidin-4-yl)phenyl)thiazol-2-yl)amino)-2-oxoethyl)-1H-pyrrole-3-carboxamide]
IC50 (BRM; read-out: BRM IP50 (μM)*): < 0.01 µM | IC50 (BRG-1; read-out: BRG1 IP50 (μM)*): < 0.01 µM

CS(=O)(=O)n1ccc(C(=O)NCC(=O)Nc2nc(-c3cccc(-c4ccnc(CC(=O)O)c4)c3)cs2)c1 [Compound 421, Sodium 2-(4-(3-(2-(2-(1-(methylsulfonyl)-1H-pyrrole-3-carboxamido)acetamido)thiazol-4-yl)phenyl)pyridin-2-yl)acetate]
IC50 (BRM; read-out: BRM IP50): > 0.01 µM | IC50 (BRG-1; read-out: BRG1 IP50): > 0.01 µM

COC(=O)N1CCC[C@@H](c2csc(NC(=O)CNC(=O)c3ccn(C(C)(C)C)c3)n2)C1 [Compound 580]
IC50 (BRM; read-out: BRM IP50): > 0.1 µM | IC50 (BRG-1; read-out: BRG1 IP50): > 0.1 µM

Cc1cccc(-c2csc(NC(=O)CNC(=O)c3ccn(S(C)(=O)=O)c3)n2)c1 [Compound 247]
IC50 (BRM; read-out: BRM IP50 (μM)*): > 0.01 µM | IC50 (BRG-1; read-out: BRG1 IP50 (μM)*): > 0.01 µM

N#CC1(n2ccc(C(=O)NCC(=O)Nc3nc(-c4cccc(N5CCC5)c4)cs3)c2)CC1 [Compound 476]
IC50 (BRM; read-out: BRM IP50): > 0.01 µM | IC50 (BRG-1; read-out: BRG1 IP50): > 0.01 µM

CS(=O)(=O)n1ccc(C(=O)NCC(=O)Nc2nc(-c3ccc(F)c(OC4CC4)n3)cs2)c1 [Compound 614]
IC50 (BRM; read-out: BRM IP50): > 0.01 µM | IC50 (BRG-1; read-out: BRG1 IP50): > 0.01 µM

C[C@H]1CN(c2cccc(-c3csc(NC(=O)CNC(=O)c4ccn(S(C)(=O)=O)c4)n3)c2)CC[C@H]1O [Compound 219]
IC50 (BRM; read-out: BRM IP50 (μM)*): > 0.01 µM | IC50 (BRG-1; read-out: BRG1 IP50 (μM)*): > 0.01 µM

CC(C)(C)n1ccc(C(=O)NCC(=O)Nc2nc(-c3cccc(OCC4(F)COC4)c3)cs2)c1 [Compound 509]
IC50 (BRM; read-out: BRM IP50): > 0.1 µM | IC50 (BRG-1; read-out: BRG1 IP50): > 0.1 µM

COC[C@H](NC(=O)c1ccn(S(C)(=O)=O)c1)C(=O)Nc1nc(-c2cccc(N3CC[C@@H]4COC[C@H]4C3)n2)cs1 [Compound 773]
IC50 (BRM; read-out: BRM IP50): < 0.01 µM | IC50 (BRG-1; read-out: BRG1 IP50): < 0.01 µM

Reference: patent US20230079819A1, “COMPOUNDS AND USES THEREOF” (Foghorn Therapeutics Inc., priority 2019, published 2023)
